Data reported in publication PMC8746797, “Design, Synthesis, and Structure–Activity Relationship Study of Potent MAPK11 Inhibitors” (Molecules, 2021).
Read-outs that look alike come from different tables or passages of the source.

Assays:
MAPK11 = MAPK11 (Homo sapiens, UniProt Q15759); assay: Enzyme assay against MAPK11 (mobility shift assay); type: biochemical; details: for IC50: mobility shift assay, mean ± SD of at least two independent determinations, read-out: MAPK11 Enzyme Inhibitory Activity IC50
Protocol: The effect of the above synthesized inhibitors on MAPK11 kinase activity in vitro was assessed using mobility shift assay by ChemPartner. Following the kinase reaction, a part of the substrate was added to a phosphate group under the action of the kinase to yield a product. The substrate and the product have a difference of 3 charges, thereby allowing them to be separated and detected by capillary electrophoresis. […] Finally, the data was fitted to the XLFit Excel plug-in version 5.4.0.8 to calculate the IC50 value.

MAPK14 = details: cited from earlier work

Sequence of MAPK11 (Q15759 whole entry): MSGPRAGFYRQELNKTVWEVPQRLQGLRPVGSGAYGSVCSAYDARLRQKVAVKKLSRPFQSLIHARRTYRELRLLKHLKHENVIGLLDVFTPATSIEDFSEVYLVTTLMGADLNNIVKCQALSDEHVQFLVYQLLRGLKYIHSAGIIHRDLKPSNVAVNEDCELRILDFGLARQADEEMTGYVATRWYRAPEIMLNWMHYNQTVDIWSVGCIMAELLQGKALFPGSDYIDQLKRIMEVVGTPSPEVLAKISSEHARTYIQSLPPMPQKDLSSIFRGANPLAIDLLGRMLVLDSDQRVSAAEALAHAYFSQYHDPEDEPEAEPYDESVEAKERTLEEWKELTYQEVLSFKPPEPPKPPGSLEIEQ

| Compound | IC50 (MAPK11) [nM] | melting point [°C] | further results |
| --- | --- | --- | --- |
| Cc1cc(OCCCC(=O)O)cc2c1CCc1cc(Nc3ccc(F)cc3F)ccc1C2=O [Compound 13b, 4-((8-((2,4-difluorophenyl)amino)-1-methyl-5-oxo-10,11-dihydro-5H-dibenzo [a,d][7]annulen-3-yl)oxy)butanoic acid] | 4.2 ± 0.1 | 120.4 to 120.6 |  |
| O=C1c2ccc(Nc3ccc(F)cc3F)cc2CCc2ccc(OC3CC(C(=O)O)C3)cc21 (stereo not drawn) [Compound 13c] | 14.3 ± 0.6 | 145.3 to 145.9 |  |
| O=C(O)CCCOc1ccc2c(c1)C(=O)c1ccc(Nc3ccc(F)cc3F)cc1CC2 [Compound 13a] | 6.4 ± 0.6 |  | fold more potent than 12a (skepinone-L) against MAPK11 (MAPK11; ratio of IC50 values vs 12a): 3 fold |
| Cc1cc(OC[C@H](O)CO)cc2c1CCc1cc(Nc3ccc(F)cc3F)ccc1C2=O [Compound 12b] | 14.5 ± 0.3 | 135.1 to 135.8 |  |
| O=C(O)CCCOc1cccc([S+]([O-])c2ccc(Nc3ccc(F)cc3F)cc2)c1 (stereo not drawn) [Compound 25] | 2550 ± 682 |  | decrease in potency against MAPK11 compared to dibenzocycloheptanone compounds (MAPK11): more than a hundred-fold decrease |
| O=C1c2ccc(Nc3ccc(F)cc3F)cc2CCc2ccc(OCCCO)cc21 [Compound 12d] | 25.9 ± 0.7 |  |  |
| O=C1c2ccc(Nc3ccc(F)cc3F)cc2CCc2ccc(OC[C@H](O)CO)cc21 [Compound 12a, reference compound] | 19.2 ± 0.9 |  | IC50 (MAPK14): 5 nM |
| O=C(O)CCCOc1cccc(S(=O)(=O)c2ccc(Nc3ccc(F)cc3F)cc2)c1 [Compound 26] | > 10000 | 132.6 to 133.1 |  |
| O=C1c2ccc(Nc3ccc(F)cc3F)cc2CCc2ccc(OC[C@@H](O)CO)cc21 [Compound 12c] | 32 ± 0.6 |  |  |
| Cc1cc(OCCCO)cc2c1CCc1cc(Nc3ccc(F)cc3F)ccc1C2=O [Compound 12e] | 16.4 ± 0.6 | 127.2 to 127.7 |  |
| COC(=O)CCCOc1ccc2c(c1)C(=O)c1ccc(Nc3ccc(F)cc3F)cc1CC2 [Compound 12f] | 61 ± 2.1 | 124.6 to 125 | decrease in potency against MAPK11 relative to 13a (MAPK11; ester 12f vs carboxylic acid 13a): about 10 fold |
| NC(=O)CCCOc1ccc2c(c1)C(=O)c1ccc(Nc3ccc(F)cc3F)cc1CC2 [Compound 14a] | 8.4 ± 0.1 |  |  |
| CC(C)(C)Cn1c(N)nc2ccc(-c3[nH]c(C(C)(C)C)nc3-c3ccc(F)cc3)nc21 [LY2228820] |  |  | IC50 (MAPK14; Figure 1): 5.3 nM |

More lines, main results first:

| IC50 (MAPK11) [nM] | melting point [°C] | Compound | further results |
| --- | --- | --- | --- |
| > 10000 | 135.9 to 136.6 | O=S(=O)(c1ccc(Nc2ccc(F)cc2F)cc1)c1cccc(OC[C@H](O)CO)c1 [Compound 23b] |  |
|  | 126.8 to 127.4 | COC(=O)CCCOc1cccc(S(=O)(=O)c2ccc(Nc3ccc(F)cc3F)cc2)c1 [Compound 23d] |  |
| > 10000 | 136.3 to 136.7 | O=S(=O)(c1ccc(Nc2ccc(F)cc2F)cc1)c1cccc(OC[C@@H](O)CO)c1 [Compound 23c] |  |
